One data set relates to U-87 MG. In words: Antiproliferative activity against human U-87 MG cells assessed as reduction in cell growth incubated for 72 hrs by SRB assay. The format is functional, cell-based, U-87MG ATCC.
The nature of data set [1]: Selectivity index, ratio of IC50 for cytotoxicity against human HDF cells to IC50 for cytotoxicity against human SK-OV-3 cells.
A further data set relates to SK-OV-3. In words: Antiproliferative activity against human SK-OV-3 cells assessed as reduction in cell growth incubated for 72 hrs by SRB assay. Type of data set: functional, cell-based. The settings on record: SK-OV-3, 72 h. (The SRB assay estimates cell density from bound dye.)
Another data set relates to SK-BR-3. In words: Antiproliferative activity against human SK-BR-3 cells assessed as reduction in cell growth incubated for 72 hrs by SRB assay. The format is functional, cell-based. The conditions noted are these: SK-BR-3, 72 h.
In another data set the test system is A549. Kind of data set: Antiproliferative activity against human A549 cells assessed as reduction in cell growth incubated for 72 hrs by SRB assay. The settings on record: A549, 72 h. Type of data set: functional, cell-based.
A short description of data set [2]: Selectivity index, ratio of IC50 for cytotoxicity against human HDF cells to IC50 for cytotoxicity against human SK-BR-3 cells. Type of data set: toxicity, cell-based. The conditions noted are these: HDF cells versus SK-BR-3 cells, read-out: Ratio IC50.
A short description of data set [3]: Selectivity index, ratio of IC50 for cytotoxicity against human HDF cells to IC50 for cytotoxicity against human A549 cells. The conditions noted are these: HDF cells versus A549 cells, read-out: Ratio IC50. The format is toxicity, cell-based.
A short description of data set [4]: Selectivity index, ratio of IC50 for cytotoxicity against human HDF cells to IC50 for cytotoxicity against human U-87 MG cells. The settings on record: HDF cells versus U-87 MG cells, read-out: Ratio IC50. The format is toxicity, cell-based.
Data set [5] can be described thus: Cytotoxicity against human HDF cells assessed as reduction in cell growth incubated for 72 hrs by SRB assay. Type of data set: cell-based. The settings on record: HDFa.
A short description of data set [6]: Selectivity index, ratio of IC50 for cytotoxicity against human HDF cells to IC50 for cytotoxicity against human PC-3 cells. Type of data set: toxicity, cell-based. The conditions noted are these: HDF cells versus PC-3 cells, read-out: Ratio IC50.
Another data set deals with PC-3. Kind of data set: Antiproliferative activity against human PC-3 cells assessed as reduction in cell growth incubated for 72 hrs by SRB assay. The settings on record: PC-3, 72 h. The format is functional, cell-based.

The values below come from ChEMBL document CHEMBL4765380, “Synthesis, structure and anticancer activity of new geldanamycin amine analogs containing C(17)- or C(20)- flexible and rigid arms as well as closed or open ansa-bridges” (Eur J Med Chem, 2020).

As a reminder, the IC50 is the concentration needed to halve the response being measured. For `CO[C@H]1/C=C\C=C(/C)C(=O)NC2=CC(=O)C(NCCCCCCO)=C(C[C@@H](C)C[C@H](OC)[C@H](O)[C@@H](C)/C=C(\C)[C@@H]1OC(N)=O)C2=O`, the IC50 was determined as 2080 nM in the data set on U-87 MG; 2190 nM with SK-OV-3; 2070 nM in the data set on SK-BR-3; 2770 nM in the data set with A549; 5990 nM in [5]; 2240 nM with PC-3. Moreover, the “Ratio IC50” value in [1] is recorded as 2.74. Besides, the selectivity ratio in data set [2] turned out to be 2.89; in [3], 2.16; in data set [4], 2.88; in [6], 2.67.

Regarding `CO[C@H]1/C=C\C=C(/C)C(=O)NC2=CC(=O)C(NCCCCO)=C(C[C@@H](C)C[C@H](OC)[C@H](O)[C@@H](C)/C=C(\C)[C@@H]1OC(N)=O)C2=O`, the half-inhibitory concentration (IC50) is 1600 nM with U-87 MG; 1590 nM in the data set with SK-OV-3; 1630 nM in the data set with SK-BR-3; 1630 nM in the data set with A549; 3510 nM in [5]; 1660 nM in the data set with PC-3. The “Ratio IC50” value in data set [1] is 2.21. Besides, the selectivity ratio is 2.15 in data set [2], 2.15 in data set [3], 2.19 in [4] and 2.11 in [6].

Regarding `CCCCOCCOCCNC1=C2C[C@@H](C)C[C@H](OC)[C@H](O)[C@@H](C)/C=C(\C)[C@H](OC(N)=O)[C@@H](OC)/C=C\C=C(/C)C(=O)NC(=CC1=O)C2=O`, the IC50 in the data set with U-87 MG was found to be 1220 nM; with SK-OV-3, 1660 nM; in the data set on SK-BR-3, 1020 nM; with A549, 1190 nM; in data set [5], 2640 nM; with PC-3, 1480 nM. In addition, the “Ratio IC50” value in data set [1] is 1.59. The selectivity ratio in data set [2] turned out to be 2.59; in data set [3], 2.22; in data set [4] it was 2.16; in [6], 1.78.

Take `CO[C@H]1/C=C\C=C(/C)C(=O)NC2=CC(=O)C(NCCOCCO)=C(C[C@@H](C)C[C@H](OC)[C@H](O)[C@@H](C)/C=C(\C)[C@@H]1OC(N)=O)C2=O`: the IC50 in the data set with U-87 MG came out at 2660 nM; in the data set with SK-OV-3, 2510 nM; in the data set on SK-BR-3, 2050 nM; in the data set on A549 it was 2150 nM; in data set [5], 4990 nM; with PC-3 it was 1960 nM. Further, the “Ratio IC50” value in data set [1] is recorded as 1.99. Besides, the selectivity ratio in data set [2] was found to be 2.43; in data set [3] it was 2.32; in [4] it was 1.88; in data set [6], 2.55.

On to `CO[C@H]1/C=C\C=C(/C)C(=O)NC2=CC(=O)C(NC3CCC(O)CC3)=C(C[C@@H](C)C[C@H](OC)[C@H](O)[C@@H](C)/C=C(\C)[C@@H]1OC(N)=O)C2=O` (some centres undefined), for which the IC50 in the data set with U-87 MG came out at 3710 nM; in the data set on SK-OV-3, 3160 nM; with SK-BR-3 it was 3830 nM; in the data set with A549, 3310 nM; in data set [5] it was 8190 nM; with PC-3 it was 3290 nM. Besides, the “Ratio IC50” value in [1] was 2.59. Also, the selectivity ratio was 2.14 in data set [2], 2.47 in [3], 2.21 in data set [4] and 2.49 in data set [6].

Take `CO[C@H]1/C=C\C=C(/C)C(=O)NC2=CC(=O)C(NNC3=NCCN3)=C(C[C@@H](C)C[C@H](OC)[C@H](O)[C@@H](C)/C=C(\C)[C@@H]1OC(N)=O)C2=O`: the IC50 in the data set with U-87 MG turned out to be 2090 nM; with SK-OV-3 it was 2470 nM; in the data set on SK-BR-3 it was 2090 nM; in the data set on A549, 2710 nM; in data set [5], 3920 nM; in the data set on PC-3 it was 3110 nM. For the same compound, the “Ratio IC50” value in data set [1] is 1.59. The selectivity ratio in [2] turned out to be 1.88; in [3], 1.45; in data set [4], 1.88; in data set [6] it was 1.26.

In the case of `CO[C@H]1/C=C\C=C(/C)C(=O)NC2=CC(=O)C(NCc3ccc(CS(N)(=O)=O)cc3)=C(C[C@@H](C)C[C@H](OC)[C@H](O)[C@@H](C)/C=C(\C)[C@@H]1OC(N)=O)C2=O`, the IC50 in the data set on U-87 MG came to 2740 nM; in the data set with SK-OV-3, 2000 nM; in the data set with SK-BR-3 it was 2060 nM; with A549, 2020 nM; in data set [5], 4960 nM; in the data set with PC-3 it was 1780 nM. The “Ratio IC50” value in [1] came out at 2.48. For the same compound, the selectivity ratio in data set [2] came to 2.41; in [4], 1.81; in data set [6], 2.9.

With `C#CCNC1=C2C[C@@H](C)C[C@H](OC)[C@H](O)[C@@H](C)/C=C(\C)[C@H](OC(N)=O)[C@@H](OC)/C=C\C=C(/C)C(=O)NC(=CC1=O)C2=O`, the half-maximal inhibitory concentration (IC50) with U-87 MG is 4010 nM; with SK-OV-3 it was 4150 nM; in the data set on SK-BR-3, 4440 nM; with A549, 4520 nM; in data set [5], 7880 nM; in the data set with PC-3, 3610 nM. Also, in [1], the “Ratio IC50” value stood at 1.9. Also, the selectivity ratio was found to be 1.77 in [2], 1.74 in data set [3], 1.97 in data set [4] and 2.18 in data set [6].

`CO[C@H]1/C=C\C=C(/C)C(=O)NC2=CC(=O)C(NCC3COCCOCCOCCOCCO3)=C(C[C@@H](C)C[C@H](OC)[C@H](O)[C@@H](C)/C=C(\C)[C@@H]1OC(N)=O)C2=O` (some centres undefined): the half-inhibitory concentration (IC50) was 2990 nM in the data set on U-87 MG; 2940 nM in the data set on SK-OV-3; 2080 nM with A549; 5710 nM in data set [5]; 2330 nM with PC-3. Also, the “Ratio IC50” value in data set [1] is on record as 1.94. The selectivity ratio in data set [2] was determined as 2.48; in data set [3], 2.75; in data set [4], 1.91; in [6], 2.26.

With `COc1c(O)cc2cc1C[C@@H](C)C[C@H](OC)[C@H](O)[C@@H](C)/C=C(\C)[C@H](OC(N)=O)[C@@H](OC)CC/C=C(\C)C(=O)N2` [REBLASTATIN], the “Ratio IC50” value in [1] is 54. Also, the IC50 turned out to be 125 nM with SK-OV-3, 600 nM with SK-BR-3 and 18 nM in the data set with PC-3. For the same compound, the selectivity ratio in data set [2] is 53; in data set [6], 54.

For `CO[C@H]1/C=C\C=C(/C)C(=O)NC2=CC(=O)C(NCCCN3CCCC3)=C(C[C@@H](C)C[C@H](OC)[C@H](O)[C@@H](C)/C=C(\C)[C@@H]1OC(N)=O)C2=O`, the IC50 turned out to be 2040 nM with U-87 MG; 2820 nM in the data set on SK-OV-3; 2060 nM in the data set with SK-BR-3; 2610 nM in the data set on A549; 7380 nM in [5]; 2730 nM with PC-3. The “Ratio IC50” value in data set [1] came out at 2.62. Besides, the selectivity ratio was determined as 3.58 in data set [2], 2.83 in [3], 3.62 in data set [4] and 2.7 in data set [6].

`CO[C@H]1/C=C\C=C(/C)C(=O)NC2=CC(=O)C(NC3CCN(C(C)=O)CC3)=C(C[C@@H](C)C[C@H](OC)[C@H](O)[C@@H](C)/C=C(\C)[C@@H]1OC(N)=O)C2=O`: the concentration for half-maximal inhibition (IC50) in the data set with U-87 MG stood at 1120 nM; in the data set with SK-OV-3, 1730 nM; with SK-BR-3, 1030 nM; in the data set on A549, 970 nM; in [5], 4190 nM; with PC-3, 1660 nM. In addition, the “Ratio IC50” value in [1] was found to be 2.42. Moreover, the values for the selectivity ratio in [2], in data set [3] and in data set [6] were 4.07, 4.32 and 2.52, respectively.
